Patent US6982348B2, “Aminoethanol derivatives” (Takeda Pharmaceutical Company Limited, priority 2001, dated 2006)

Compound | melting point
CCCCOc1ccc([C@H](O)[C@@H](Cc2cccc(OC(F)(F)C(F)F)c2)NC(=O)c2cccc3c2C=CCCC3)cc1 (racemic) [Example 244, N-{(1RS,2SR)-2-(4-butoxyphenyl)-2-hydroxy-1-[3-(1,1,2,2-tetrafluoroethoxy)benzyl]ethyl}-6,7-dihydro-5H-benzo[a][7]annulene-1-carboxamide] | 126 to 127 °C
O=C(N[C@H](Cc1cccc(OC(F)(F)C(F)F)c1)[C@@H](O)c1ccc(OCc2ccc(F)cc2)cc1)c1cccc2c1C=CCCC2 (racemic) [Example 245, N-{(1RS,2SR)-2-{4-[(4-fluorobenzyl)oxy]phenyl}-2-hydroxy-1-[3-(1,1,2,2-tetrafluoroethoxy)benzyl]ethyl}-6,7-dihydro-5H-benzo[a][7]annulene-1-carboxamide] | 144 to 145 °C
O=C(N[C@H](Cc1cccc(OC(F)(F)C(F)F)c1)[C@@H](O)c1ccc(OCC2CCCCC2)cc1)c1cccc2c1C=CCCC2 (racemic) [Example 246, N-{(1RS,2SR)-2-[4-(cyclohexylmethoxy)phenyl]-2-hydroxy-1-[3-(1,1,2,2-tetrafluoroethoxy)benzyl]ethyl}-6,7-dihydro-5H-benzo[a][7]annulene-1-carboxamide] | 141 to 142 °C
O=C(N[C@H](Cc1cccc(OC(F)(F)C(F)F)c1)[C@@H](O)c1ccc(OCCCOc2ccccc2)cc1)c1cccc2c1C=CCCC2 (racemic) [Example 247, N-{(1RS,2SR)-2-hydroxy-2-[4-(3-phenoxypropoxy)phenyl]-1-[3-(1,1,2,2-tetrafluoroethoxy)benzyl]ethyl}-6,7-dihydro-5H-benzo[a][7]annulene-1-carboxamide] | 142 to 143 °C
CC(=O)OCCOc1ccc([C@@H](O)[C@H](Cc2cccc(OC(F)(F)C(F)F)c2)NC(=O)c2cccc3c2C=CCCC3)cc1 (racemic) [Example 249, (4-{(1RS,2SR)-2-[(6,7-dihydro-5H-benzo[a][7]annulen-1-ylcarbonyl)amino]-1-hydroxy-3-[3-(1,1,2,2-tetrafluoroethoxy)phenyl]propyl}phenoxy)ethyl acetate] | 125 to 126 °C
O=C(O)COc1ccc([C@@H](O)[C@H](Cc2cccc(OC(F)(F)C(F)F)c2)NC(=O)c2cccc3c2C=CCCC3)cc1 (racemic) [Example 251, (4-{(1RS,2SR)-2-[(6,7-dihydro-5H-benzo[a][7]annulen-1-ylcarbonyl)amino]-1-hydroxy-3-[3-(1,1,2,2-tetrafluoroethoxy)phenyl]propyl}phenoxy)acetic acid] | 119 to 120 °C
CC(C)(C)OC(=O)N[C@H](Cc1cccc(OC(F)(F)C(F)F)c1)[C@@H](O)c1ccc(Oc2ccccn2)cc1 (racemic) [Example 257, tert-butyl (1RS,2SR)-2-hydroxy-2-[4-(pyridin-2-yloxy)phenyl]-1-[3-(1,1,2,2-tetrafluoroethoxy)benzyl]ethylcarbamate] | 130 to 131 °C
O=C(N[C@H](Cc1cccc(OC(F)(F)C(F)F)c1)[C@@H](O)c1ccc(Oc2cccnc2)cc1)c1cccc2c1C=CCCC2 (racemic) [Example 261, N-{(1RS,2SR)-2-hydroxy-2-[4-(pyridin-3-yloxy)phenyl]-1-[3-(1,1,2,2-tetrafluoroethoxy)benzyl]ethyl}-6,7-dihydro-5H-benzo[a][7]annulene-1-carboxamide] | 133 to 134 °C
O=C(N[C@H](Cc1cccc(OC(F)(F)C(F)F)c1)[C@@H](O)c1cccc(F)c1)c1ccc(F)c2ccccc12 (racemic) [Example 263, 4-fluoro-N-{(1RS,2SR)-2-(3-fluorophenyl)-2-hydroxy-1-[3-(1,1,2,2-tetrafluoroethoxy)benzyl]ethyl}-1-naphthamide] | 175 to 176 °C
O=C(N[C@H](Cc1cccc(OC(F)(F)C(F)F)c1)[C@@H](O)c1ccnc(F)c1)c1ccc(F)c2ccccc12 (racemic) [Example 265, 4-fluoro-N-{(1RS,2SR)-2-(2-fluoropyridin-4-yl)-2-hydroxy-1-[3-(1,1,2,2-tetrafluoroethoxy)benzyl]ethyl}-1-naphthamide] | 170 to 171 °C
O=C(N[C@H](Cc1cccc(OC(F)(F)C(F)F)c1)[C@@H](O)c1cccc(F)n1)c1ccc(F)c2ccccc12 (racemic) [Example 266, 4-fluoro-N-{(1RS,2RS)-2-(6-fluoropyridin-2-yl)-2-hydroxy-1-[3-(1,1,2,2-tetrafluoroethoxy)benzyl]ethyl}-1-naphthamide] | 185 to 186 °C

The remaining lines, values ahead:

melting point | Compound
169 to 170 °C | COC(=O)c1ccc(COc2ccc([C@@H](O)[C@H](Cc3cccc(OC(F)(F)C(F)F)c3)NC(=O)c3cccc4c3C=CCCC4)cc2)cc1 (racemic) [Example 248, methyl 4-[(4-{(1RS,2SR)-2-[(6,7-dihydro-5H-benzo[a][7]annulen-1-ylcarbonyl)amino]-1-hydroxy-3-[3-(1,1,2,2-tetrafluoroethoxy)phenyl]propyl}phenoxy)methyl]benzoate]
190 to 191 °C | O=C(O)c1ccc(COc2ccc([C@@H](O)[C@H](Cc3cccc(OC(F)(F)C(F)F)c3)NC(=O)c3cccc4c3C=CCCC4)cc2)cc1 (racemic) [Example 250, 4-[(4-{(1RS,2SR)-2-[(6,7-dihydro-5H-benzo[a][7]annulen-1-ylcarbonyl)amino]-1-hydroxy-3-[3-(1,1,2,2-tetrafluoroethoxy)phenyl]propyl}phenoxy)methyl]benzoic acid]
155 to 156 °C | COc1cccc([C@H](O)[C@@H](Cc2cccc(OC(F)(F)C(F)F)c2)NC(=O)c2cccc3c2C=CCCC3)c1 (racemic) [Example 253, N-{(1RS,2SR)-2-hydroxy-2-(3-methoxyphenyl)-1-[3-(1,1,2,2-tetrafluoroethoxy)benzyl]ethyl}-6,7-dihydro-5H-benzo[a][7]annulene-1-carboxamide]
129 to 130 °C | CC(C)(C)OC(=O)N[C@H](Cc1cccc(OC(F)(F)C(F)F)c1)[C@@H](O)c1ccc(Oc2ccccc2)cn1 (racemic) [Example 254, tert-butyl (1RS,2RS)-2-hydroxy-2-(5-phenoxypyridin-2-yl)-1-[3-(1,1,2,2-tetrafluoroethoxy)benzyl]ethylcarbamate]
147 to 148 °C | O=C(N[C@H](Cc1cccc(OC(F)(F)C(F)F)c1)[C@@H](O)c1ccc(Oc2ccccc2)cn1)c1cccc2c1C=CCCC2 (racemic) [Example 255, N-{(1RS,2RS)-2-hydroxy-2-(5-phenoxypyridin-2-yl)-1-[3-(1,1,2,2-tetrafluoroethoxy)benzyl]ethyl}-6,7-dihydro-5H-benzo[a][7]annulene-1-carboxamide]
146 to 147 °C | O=C(N[C@H](Cc1cccc(OC(F)(F)C(F)F)c1)[C@@H](O)c1ccc(Oc2ccccc2)cn1)c1ccc(F)c2ccccc12 (racemic) [Example 256, 4-fluoro-N-{(1RS,2RS)-2-hydroxy-2-(5-phenoxypyridin-2-yl)-1-[3-(1,1,2,2-tetrafluoroethoxy)benzyl]ethyl}-1-naphthamide]
160 to 161 °C | O=C(N[C@H](Cc1cccc(OC(F)(F)C(F)F)c1)[C@@H](O)c1ccc(Oc2ccccn2)cc1)c1cccc2c1C=CCCC2 (racemic) [Example 258, N-{(1RS,2SR)-2-hydroxy-2-[4-(pyridin-2-yloxy)phenyl]-1-[3-(1,1,2,2-tetrafluoroethoxy)benzyl]ethyl}-6,7-dihydro-5H-benzo[a][7]annulene-1-carboxamide]
176 to 177 °C | O=C(N[C@H](Cc1cccc(OC(F)(F)C(F)F)c1)[C@@H](O)c1ccc(Oc2ccccn2)cc1)c1ccc(F)c2ccccc12 (racemic) [Example 259, 4-fluoro-N-{(1RS,2SR)-2-hydroxy-2-[4-(pyridin-2-yloxy)phenyl]-1-[3-(1,1,2,2-tetrafluoroethoxy)benzyl]ethyl}-1-naphthamide]
123 to 124 °C | CC(C)(C)OC(=O)N[C@H](Cc1cccc(OC(F)(F)C(F)F)c1)[C@@H](O)c1ccc(Oc2cccnc2)cc1 (racemic) [Example 260, tert-butyl (1RS,2SR)-2-hydroxy-2-[4-(pyridin-3-yloxy)phenyl]-1-[3-(1,1,2,2-tetrafluoroethoxy)benzyl]ethylcarbamate]
183 to 184 °C | O=C(N[C@H](Cc1cccc(OC(F)(F)C(F)F)c1)[C@@H](O)c1ccc(Oc2cccnc2)cc1)c1ccc(F)c2ccccc12 (racemic) [Example 262, 4-fluoro-N-{(1RS,2SR)-2-hydroxy-2-[4-(pyridin-3-yloxy)phenyl]-1-[3-(1,1,2,2-tetrafluoroethoxy)benzyl]ethyl}-1-naphthamide]
177 to 178 °C | O=C(N[C@H](Cc1cccc(OC(F)(F)C(F)F)c1)[C@@H](O)c1cccc(Cl)c1)c1ccc(F)c2ccccc12 (racemic) [Example 264, 4-fluoro-N-{(1RS,2SR)-2-(3-chlorophenyl)-2-hydroxy-1-[3-(1,1,2,2-tetrafluoroethoxy)benzyl]ethyl}-1-naphthamide]
155 to 156 °C | O=C(N[C@H](Cc1cccc(OC(F)(F)C(F)F)c1)[C@@H](O)c1ccc(Oc2ccccc2)cc1)c1ccc(F)c2ccccc12 (racemic) [Example 267, 4-fluoro-N-{(1RS,2SR)-2-hydroxy-2-(4-phenoxyphenyl)-1-[3-(1,1,2,2-tetrafluoroethoxy)benzyl]ethyl}-1-naphthamide]
192 to 193 °C | O=C(N[C@H](Cc1cccc(SC(F)(F)F)c1)[C@@H](O)c1ccc(F)cc1)c1ccc(F)c2ccccc12 (racemic) [Example 269, 4-fluoro-N-((1RS,2SR)-2-(4-fluorophenyl)-2-hydroxy-1-{3-[(trifluoromethyl)thio]benzyl}ethyl)-1-naphthamide]
184 to 185 °C | O=C(N[C@H](Cc1ccc2c(c1)OC(F)(F)C(F)(F)O2)[C@@H](O)c1ccc(F)cc1)c1cccc2c1C=CCCC2 (racemic) [Example 270, N-{(1RS,2SR)-2-(4-fluorophenyl)-2-hydroxy-1-[(2,2,3,3-tetrafluoro-2,3-dihydro-1,4-benzodioxin-6-yl)methyl]ethyl}-6,7-dihydro-5H-benzo[a][7]annulene-1-carboxamide]
142 to 143 °C | CC(C)(C)c1ccc(C[C@@H](NC(=O)c2cccc3c2C=CCCC3)[C@@H](O)c2cccc(Cl)c2)cc1 (racemic) [Example 272, N-[(1RS,2SR)-1-(4-tert-butylbenzyl)-2-(3-chlorophenyl)-2-hydroxyethyl]-6,7-dihydro-5H-benzo[a][7]annulene-1-carboxamide]
